This is an account of results in article PMC9103715, “New Panx-1 Blockers: Synthesis, Biological Evaluation and Molecular Dynamic Studies” (International Journal of Molecular Sciences, 2022).

Structures are written as SMILES. “Also recorded” adds a separate entry of the source.

Data set [1] deals with T1, Panx-1 channels (Mus musculus, UniProt Q9JIP4).
T1 construct: expressed in transfected cells; host or cells: Xenopus laevis oocytes injected with in vitro-transcribed mRNA
The data set is described as follows: Voltage clamp on Xenopus laevis oocytes expressing Panx-1 channels. In kind it is cell-based. Conditions: for inhibition at 50 µM / I (%) inhibition of Panx-1 currents: voltage clamp, Xenopus laevis oocytes expressing Panx-1 channels, 50 µM; for inhibition at 50 µM: read-out: I (%) inhibition of Panx-1 currents. As to the method:
All new products were screened as Panx-1 blockers at the dose of 50 µM using the Voltage Clamp technique on Xenopus Laevis oocytes expressing Panx-1 channels. The membrane potential of the cells was held at -60 mV and voltage steps to +60 mV were applied to induce membrane currents. To verify that Panx-1 channels carried the currents, in each experiment 100 µM carbenoxolone (CBX) was applied. At this concentration, CBX is known to yield 100% inhibition of Panx-1 activity. If present, leak currents resistant to CBX were subtracted from the total current to assess % inhibition mediated by the tested compounds. Table 1 and Table 2 report the electrophysiological results of naphthalene-2-sulphonic acid derivatives bearing at position 5 an amino- (3a–e, 4 and 5) or amide group (7a–g, 8 and 9) and of compound 13.
Oocytes of Xenopus laevis are prepared as previously described in [39] where the oocytes are isolated from surgically removed ovary segments incubated in an Oocyte Ringe solution Ca2-free (OR2: in mM: 82.5 NaCl, 2.5 KCl, 1.0 MgCl2, […], 1.0 Na2HPO4 e 5.0 HEPES, pH 7.5) with 2 mg/mL of collagenase and antibiotics (10,000 U/mL penicillin and 10 mg/mL of streptomycin) stirred at room temperature for 3 h. After being washed with OR2, oocytes free of follicular cells and that have a uniform pigmentation are chosen and stored in OR2 for 18 °C.
Mouse pannexin1, in pCS2, was linearised with NotI. In vitro transcription was performed with the polymerase SP6, using the Message Machine kit (Ambion). mRNA was quantified by absorbance (260 nm), and the proportion of full-length transcripts was checked by agarose gel electrophoresis. In vitro-transcribed mRNA (~20 nL) was injected into Xenopus laevis oocytes.
Whole-cell membrane currents of oocytes were measured using a two-electrode voltage clamp (Gene Clamp 500B, Axon Instruments/Molecular Devices Sunnyvale, Union City, CA, USA). Glass pipettes were pulled using a P-97 Flaming/Brown type puller (Sutter, Novato, CA, USA). The recording chamber was perfused continuously with frog Ringer (OR) solution (in mM: 82.5 NaCl, 2.5 KCl, 1 CaCl2, 1 MgCl2, 1 Na2HPO4, and 5 HEPES, pH 7.5).
Membrane conductance was determined using voltage pulses, and the pulse-induced current amplitudes were divided by the amplitudes of the voltage steps. For calculation of % inhibition, leak currents were subtracted. Typically, leak currents after the interventions were smaller than at the beginning of the experiment and this smaller value was used for the subtraction to avoid overestimation of the inhibitory effect. For an independent measure of the leak current, oocytes at the end of the experiment were exposed to 100 µM carbenoxolone, which is known to close Panx1 channels 100%. Oocytes expressing Panx1 were held at −60 mV, and pulses to +60 mV were applied to transiently open the channels by means of the voltage gate. Pulses 5 s in duration were applied at 0.1 Hz for current and conductance measurements.

For data set [2], the target named is T1, Panx-1 channels. Described as above. Type of data set: cell-based. Conditions: for IC50: dose-response curves, Panx1-mediated membrane currents in oocytes.
In data set [3] the test system is Panx-1. Conditions: Panx-1 blockers, reference compounds; cited from earlier work.
For data set [4], the system named is oxaliplatin-induced thermal allodynia in mice. The data set is described as follows: Cold plate test in mouse model of oxaliplatin-induced neuropathic pain. In kind it is in vivo. Conditions: oxaliplatin-treated mice; for time of maximum anti-allodynic effect: 3 nmol intrathecally; for pain threshold (licking latency), Cold plate test: 1 nmol and 3 nmol intrathecally, vs oxaliplatin + vehicle. As to the method:
The two selected Panx-1 blockers, 4 and 13, were tested in a mouse model of oxaliplatin-induced neuropathic pain that involves this channel. Oxaliplatin is a third-generation platinum-based chemotherapeutic agent that, similar to other platinum-based compounds, interferes with the proliferation of tumor cells, leading to cancer cell destruction […] Recent studies have highlighted the efficacy of selective Panx1 antagonists in […] evoked by repeated administrations of antineoplastic drug, making Panx1 a possible therapeutic target in reducing chemotherapeutic-induced neuropathic pain [16, 23]. In this experiment we tested the anti-hypersensitivity properties of two novel Panx1 antagonists in a mouse model of oxaliplatin-induced thermal allodynia. […] This time delay is reported here as licking latency (s). The two compounds were acutely injected intrathecally at 1 nmol and 3 nmol in oxaliplatin-treated animals. […] The effect recorded was dose-dependent (Figure 5b).
Eight-week-old male CD-1 mice (Envigo, Varese, Italy) weighing approximately 20–25 g at the beginning of the experimental procedure were used. Animals were housed in the Centro Stabulazione Animali da Laboratorio (CeSAL; University of Florence, Italy) and used at least 1 week after their arrival; 10 mice were housed per cage (size 26 cm × 41 cm). Animals were fed a standard laboratory diet and tap water ad libitum and kept at 23 ± 1 °C with a 12 h light/dark cycle (light at 7 a.m.).
Mice treated with oxaliplatin (Carbosynth, Pangbourne, UK; 2.4 mg kg^−1) were administered intraperitoneally (i.p.) for 2 weeks Oxaliplatin was dissolved in a 5% glucose solution. Control animals received an equivalent volume of vehicle. Behavioural tests were performed starting from day 14, when neuropathy was well established.
Compounds 4 and 13 were intrathecally (i.t.) injected in conscious mice as previously described. Compound 4 was dissolved in sterile saline solution while compound 13 was dissolved in a mixture consisting of PEG400, TWEEN 20 and sterile saline solution (1:1:3, respectively). Briefly, a 25 µL Hamilton syringe connected to a 30-gauge needle was intervertebrally inserted between the L4 and L5 region, and advanced 6 mm into the lumbar enlargement of the spinal cord. Behavioural measurements were performed before and 15 min, 30 min, 45 min, and 60 min after the administration of compounds.
Thermal allodynia was assessed using the Cold-plate test. With minimal animal-handler interaction, mice were taken from home-cages, and placed onto the surface of the cold-plate (Ugo Basile, Varese, Italy) maintained at a constant temperature of 4 ± 1 °C. Ambulation was restricted by a cylindrical plexiglas chamber (diameter: 10 cm, height: 15 cm), with open top. A timer controlled by foot peddle began timing response latency from the moment the mouse was placed onto the cold-plate. Pain-related behaviour (licking of the hind paw) was observed, and the time (seconds) of the first sign was recorded. The cut-off time of the latency of paw lifting or licking was set at 30 s.
Figure 5 Pain-relieving effect of (a) 4 and (b) 13 on oxaliplatin-induced thermal allodynia in mice. Cold plate test. […] Pain-related behavior (i.e., lifting and licking of the hind paw) was observed and the time (s) of the first sign was recorded. ** p < 0.01 vs. vehicle + vehicle treated animals; ^ p < 0.05 and ^^ p < 0.01 vs. oxaliplatin + vehicle treated animals. […]

T1 sequence (Q9JIP4 whole entry): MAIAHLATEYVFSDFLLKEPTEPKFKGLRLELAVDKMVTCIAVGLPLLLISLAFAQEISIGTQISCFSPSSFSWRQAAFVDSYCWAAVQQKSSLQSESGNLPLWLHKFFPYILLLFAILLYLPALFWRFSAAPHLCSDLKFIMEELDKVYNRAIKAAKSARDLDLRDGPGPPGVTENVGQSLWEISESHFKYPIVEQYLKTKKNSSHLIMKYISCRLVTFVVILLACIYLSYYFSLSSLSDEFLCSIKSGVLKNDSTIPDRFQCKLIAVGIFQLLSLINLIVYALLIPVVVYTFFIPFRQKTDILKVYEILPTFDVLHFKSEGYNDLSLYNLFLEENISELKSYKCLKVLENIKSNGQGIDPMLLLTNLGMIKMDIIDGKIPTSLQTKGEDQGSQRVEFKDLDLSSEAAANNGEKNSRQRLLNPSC

The term inhibition denotes how much of the control response was suppressed. By IC50 is commonly meant the midpoint of a concentration-inhibition curve. For the compound `O=S(=O)(O)c1ccc2c(NCCCc3ccccc3)cccc2c1` [Compound 3c, 5-[(3-Phenylpropyl)amino]naphthalene-2-sulfonic acid], the inhibition at 50 µM in data set [1] amounted to 66.7 ± 5.5%. The IC50 in data set [2] was found to be 9 µM.
As a reminder, the melting point is the temperature of the solid-liquid transition. The compound `O=C(O)c1cnn(-c2ccc(S(=O)(=O)NCCc3ccccc3)cc2)c1NCCc1ccccc1` [Compound 29, 5-(Phenethylamino)-1-(4-(N-phenethylsulfamoyl)phenyl)-1H-pyrazole-4-carboxylic acid] came in with a melting point of 105 to 107 °C. Further, in data set [1], the inhibition at 50 µM was determined as 25.3 ± 0.9%.
Regarding `CCCCN(CCCC)S(=O)(=O)c1ccc(C(=O)Nc2cccc3cc(S(=O)(=O)O)ccc23)cc1` [Compound 7c, 5-[4-(N,N-dibutylsulfamoyl)benzamido]naphthalene-2-sulfonic acid], in data set [1], the inhibition at 50 µM came out at 67.8 ± 2.2%. Further, the IC50 in data set [2] came to 40.4 µM.
For `O=C(O)c1cc([N+](=O)[O-])ccc1NCCCc1ccccc1` [NPPB, 5-nitro-2-(3-phenylpropylamino)benzoic acid], the IC50 in data set [3] is 50 µM.
As for `Nc1c(C(=O)O)cnn1-c1ccc(S(N)(=O)=O)cc1` [Compound 17, 5-Amino-1-(4-sulfamoylphenyl)-1H-pyrazole-4-carboxylic acid], the melting point lay within 210 to 211 °C. In data set [1], the inhibition at 50 µM came to 0%.
Turning to `CCN(CC)S(=O)(=O)c1ccc(-n2ncc(C(=O)O)c2N)cc1` [Compound 19a, 5-Amino-1-(4-(N,N-diethylsulfamoyl)phenyl)-1H-pyrazole-4-carboxylic acid], the melting point was 240 °C (dec.). In addition, the inhibition at 50 µM in data set [1] worked out at 14.3 ± 7.4%.
Take `Nc1c(C(=O)O)cnn1-c1ccc(S(=O)(=O)NCc2ccccc2)cc1` [Compound 23, 5-Amino-1-(4-(N-benzylsulfamoyl)phenyl)-1H-pyrazole-4-carboxylic acid]: the melting point lay in the range of 207 to 210 °C. Moreover, in data set [1], the inhibition at 50 µM worked out at 16.3 ± 6.4%.
In the case of `O=C(O)c1ccc(CNc2cccc3cc(S(=O)(=O)O)ccc23)cc1` [Compound 4, 4-[(6-Sulfonaphthalen-1-yl)aminomethyl]benzoic Acid], the inhibition at 50 µM in data set [1] was 97 ± 1.5%. In addition, in data set [2], the IC50 amounted to 8.8 µM. Besides, in data set [4], the “time of maximum anti-allodynic effect” value is 45 min and the “pain threshold (licking latency), Cold plate test” value is recorded as “significantly increase the mouse pain threshold; also recorded: significant enhancement of the pain threshold”. In data set [4] (intrathecal injection), the “time after injection from which the enhancement of pain threshold is significant” value is reported as 30 min.
In turn, `CCCCNS(=O)(=O)c1ccc(-n2ncc(C(=O)O)c2N)cc1` [Compound 18c, 5-Amino-1-(4-(N-butylsulfamoyl)phenyl)-1H-pyrazole-4-carboxylic acid] had a melting point greater than 300 °C. Besides, the inhibition at 50 µM in data set [1] stood at 10.3 ± 4.9%.
`Nc1c(C(=O)O)cnn1-c1ccc(S(=O)(=O)N(Cc2ccccc2)Cc2ccccc2)cc1` [Compound 24, 5-Amino-1-(4-(N,N-dibenzylsulfamoyl)phenyl)-1H-pyrazole-4-carboxylic acid] came in with a melting point of 168 to 170 °C. In data set [1], the “I (%) inhibition of Panx-1 currents” value is 42.7 ± 2.4 (4) % and the inhibition at 50 µM was 42%. Further, the “classification as active or inactive Panx-1 blocker” value in data set [1] (grouping chosen for the virtual screening) was “inactive”.
Compound `CCCNc1c(C(=O)O)cnn1-c1ccc(S(=O)(=O)N(CCC)CCC)cc1` [Compound 19c, 1-(4-(N,N-dipropylsulfamoyl)phenyl)-5-(propylamino)-1H-pyrazole-4-carboxylic acid] had a melting point of 170 to 172 °C. In addition, in data set [1], the inhibition at 50 µM was 28 ± 6.9%.
The corresponding values for `CCCN(CCC)S(=O)(=O)c1ccc(-n2ncc(C(=O)O)c2N)cc1` [Compound 19b, 5-Amino-1-(4-(N,N-dipropylsulfamoyl)phenyl)-1H-pyrazole-4-carboxylic acid] are 167 to 168 °C and 21 ± 7.8%.
The corresponding values for `CCCNS(=O)(=O)c1ccc(-n2ncc(C(=O)O)c2N)cc1` [Compound 18b, 5-Amino-1-(4-(N-propylsulfamoyl)phenyl)-1H-pyrazole-4-carboxylic acid] are 215 to 218 °C and 4 ± 2.3%.
Turning to `O=C(Nc1cccc2cc(S(=O)(=O)O)ccc12)c1ccc(S(=O)(=O)N(Cc2ccccc2)Cc2ccccc2)cc1` [Compound 7d, 5-[4-(N,N-dibenzylsulfamoyl)benzamido]naphthalene-2-sulfonic acid], in data set [1], the “I (%) inhibition of Panx-1 currents” value is recorded as 75.2 ± 5.90 (4) % and the inhibition at 50 µM was found to be 75%. The compound also gave an IC50 in data set [2] of 15.1 µM.
As to `O=C(O)c1ccc(CN(Cc2ccc(C(=O)O)cc2)S(=O)(=O)c2ccc(C(=O)O)cc2)cc1` [Compound 13, 4,4′-{{[(4-Carboxyphenyl)sulfonyl]azanediyl}bis(methylene)}dibenzoic acid], in data set [1], the “I (%) inhibition of Panx-1 currents” value was found to be 93.7 ± 2.3% and the inhibition at 50 µM turned out to be 94%. The “% inhibition of Panx1-mediated membrane currents” value in data set [2] (Figure 4 dose-response plot, concentration not printed in the legend) came to 100%. For the same compound, in data set [2], the IC50 worked out at 1.2 µM. Further, in data set [4], the “time of maximum anti-allodynic effect” value is 45 min and the “pain threshold (licking latency), Cold plate test” value is given as “significantly increase the mouse pain threshold; also recorded: significant increase of the mouse pain threshold”.
Consider `CCNS(=O)(=O)c1ccc(-n2ncc(C(=O)O)c2N)cc1` [Compound 18a, 5-Amino-1-(4-(N-ethylsulfamoyl)phenyl)-1H-pyrazole-4-carboxylic acid], for which the melting point is 208 to 210 °C (dec.). Moreover, the inhibition at 50 µM in data set [1] stood at 0%.
